Experimental data reported in PubChem BioAssay AID1259407 (Chemical Carcinogenesis Research Information System (CCRIS), 2018).
Activity calls are given as the source filed them. No rule for the calls is given here.

System: CCRIS mutagenicity, Ames/micronucleus/aberration tests
Test: CCRIS mutagenicity studies
Settings: Test System: AMES SALMONELLA TYPHIMURIUM

Measured: mutagenic call

O=C(CCl)NCO
inactive: Strain/Indicator: TA97, Metabolic Activation: NONE, Method: STANDARD PLATE inactive; negative | Strain/Indicator: TA97, Metabolic Activation: RAT, LIVER, S-9, AROCLOR 1254, Method: STANDARD PLATE inactive; negative | Strain/Indicator: TA98, Metabolic Activation: NONE, Method: PREINCUBATION inactive; negative | Strain/Indicator: TA98, Metabolic Activation: NONE, Method: STANDARD PLATE inactive; negative | Strain/Indicator: TA98, Metabolic Activation: RAT, LIVER, S-9, AROCLOR 1254, Method: PREINCUBATION inactive; negative | Strain/Indicator: TA98, Metabolic Activation: RAT, LIVER, S-9, AROCLOR 1254, Method: STANDARD PLATE inactive; negative | Strain/Indicator: TA100, Metabolic Activation: NONE, Method: PREINCUBATION inactive; negative | Strain/Indicator: TA100, Metabolic Activation: NONE, Method: STANDARD PLATE inactive; negative | Strain/Indicator: TA100, Metabolic Activation: RAT, LIVER, S-9, AROCLOR 1254, Method: PREINCUBATION inactive; negative | Strain/Indicator: TA100, Metabolic Activation: RAT, LIVER, S-9, AROCLOR 1254, Method: STANDARD PLATE inactive; negative | Strain/Indicator: TA1535, Metabolic Activation: NONE, Method: STANDARD PLATE inactive; negative | Strain/Indicator: TA1535, Metabolic Activation: RAT, LIVER, S-9, AROCLOR 1254, Method: STANDARD PLATE inactive; negative | Strain/Indicator: TA1537, Metabolic Activation: NONE, Method: STANDARD PLATE inactive; negative | Strain/Indicator: TA1537, Metabolic Activation: RAT, LIVER, S-9, AROCLOR 1254, Method: STANDARD PLATE inactive; negative | Strain/Indicator: TA1538, Metabolic Activation: NONE, Method: STANDARD PLATE inactive; negative | Strain/Indicator: TA1538, Metabolic Activation: RAT, LIVER, S-9, AROCLOR 1254, Method: STANDARD PLATE inactive; negative
